Test results from patent US10173968B2, “Bishydrazone-based antifungal agents” (University of Kentucky Research Foundation, priority 2016, dated 2019).
Like-named read-outs stand apart in the source and are kept apart here.

How the values were obtained:
E. cloacae ATCC 13047 = assay: Antibacterial MIC, double-dilution method; assay type: cell-based; conditions: Enterobacter cloacae, ATCC13047
Procedure: (§1) MIC values were determined against a variety of Gram-positive (strains A-D) and Gram-negative (E-J) bacterial and mycobacterial (K) strains using the double-dilution method, as previously published. Preliminary screening was performed using 500 μM of each compound.

MRSA = assay: Antibacterial MIC, double-dilution method; assay type: cell-based; conditions: Staphylococcus aureus
Procedure: as §1

B. subtilis 168 = assay: Antibacterial MIC, double-dilution method; assay type: cell-based; conditions: Bacillus subtilis, strain A, Gram-positive
Procedure: as §1

VRE = assay: Antibacterial MIC, double-dilution method; assay type: cell-based; conditions: Enterococcus, strain D, Gram-positive, read-out: MIC
Procedure: as §1

M. smegmatis MC2-155 = assay: Antibacterial MIC, double-dilution method; assay type: cell-based; conditions: mycobacterial
Procedure: as §1

K. pneumoniae ATCC 27736 = assay: Antibacterial MIC, double-dilution method; assay type: cell-based; conditions: Klebsiella pneumoniae, ATCC27736
Procedure: as §1

A. baumannii ATCC 19606 = assay: Antibacterial MIC, double-dilution method; assay type: cell-based; conditions: Acinetobacter baumannii, ATCC19606
Procedure: as §1

E. coli MC1061 = assay: Antibacterial MIC, double-dilution method; assay type: cell-based; conditions: Escherichia coli, strain G, Gram-negative, read-out: MIC
Procedure: as §1

P. aeruginosa ATCC 27853 = assay: Antibacterial MIC, double-dilution method; assay type: cell-based; conditions: Pseudomonas aeruginosa, ATCC27853
Procedure: as §1

[1] = system: L. monocytogenes ATCC 19115; assay: Antibacterial MIC, double-dilution method; assay type: cell-based; conditions: Listeria monocytogenes, ATCC19115, strain B, Gram-positive, read-out: MIC
Procedure: as §1

S. enterica ATCC 14028 = assay: Antibacterial MIC, double-dilution method; assay type: cell-based; conditions: Salmonella enterica, ATCC14028
Procedure: as §1

C. albicans ATCC 90819 = assay: Antifungal MIC, CLSI M27-A3 microbroth dilution; assay type: cell-based, Candida albicans; conditions: Candida albicans, ATCC90819, C. albicans ATCC 90819, resistant to FLC, ITC, and VOR, read-out: MIC
Procedure: (§2) In vitro MIC testing was performed according to the CLSI M27-A3 standard microbroth dilution methodology for the susceptibility testing of yeasts with minor modifications.

C. albicans ATCC 2876 = assay: Antifungal MIC, CLSI M27-A3 microbroth dilution; assay type: cell-based, Candida albicans; conditions: Candida albicans, ATCC2876, C. albicans ATCC 2876, susceptible to FLC, ITC, and VOR, read-out: MIC
Procedure: as §2

C. albicans ATCC 1237 = assay: Antifungal MIC, CLSI M27-A3 microbroth dilution; assay type: cell-based, Candida albicans; conditions: Candida albicans, ATCC1237, C. albicans ATCC 1237, resistant to FLC, ITC, and VOR, read-out: MIC
Procedure: as §2

C. albicans ATCC 1003 = assay: Antifungal MIC, CLSI M27-A3 microbroth dilution; assay type: cell-based, Candida albicans; conditions: Candida albicans, ATCC1003, read-out: MIC
Procedure: as §2

C. albicans ATCC 64124 = assay: Antifungal MIC, CLSI M27-A3 microbroth dilution; assay type: cell-based, Candida albicans; conditions: Candida albicans, ATCC64124, C. albicans ATCC 64124, resistant to FLC, ITC, and VOR, read-out: MIC
Procedure: as §2

C. albicans ATCC 2310 = assay: Antifungal MIC, CLSI M27-A3 microbroth dilution; assay type: cell-based, Candida albicans; conditions: Candida albicans, ATCC2310, C. albicans ATCC 2310, susceptible to FLC, ITC, and VOR, read-out: MIC
Procedure: as §2

C. albicans ATCC 10231 = assay: Antifungal MIC, CLSI M27-A3 microbroth dilution; assay type: cell-based, Candida albicans; conditions: Candida albicans, ATCC10231, C. albicans ATCC 10231, resistant to FLC, ITC, and VOR, read-out: MIC
Procedure: as §2

[2] = strain F, Gram-negative, range 0.5 to 500 μM, read-out: MIC
[3] = strain C, Gram-positive, converted from μM, read-out: MIC
[4] = strain C, Gram-positive, range 0.5 to 500 μM, read-out: MIC
[5] = Mycolicibacterium smegmatis, MC2155, strain K, converted from μM, read-out: MIC
[6] = Mycolicibacterium smegmatis, MC2155, strain K, range 0.5 to 500 μM, read-out: MIC
[7] = strain H, Gram-negative, range 0.5 to 500 μM, read-out: MIC
[8] = strain E, Gram-negative, range 0.5 to 500 μM, read-out: MIC
[9] = strain I, Gram-negative, range 0.5 to 500 μM, read-out: MIC
[10] = strain J, Gram-negative, range 0.5 to 500 μM, read-out: MIC
[11] = C. albicans ATCC 1003, converted from μg/mL
[12] = strain F, Gram-negative, converted from μM, read-out: MIC
[13] = strain H, Gram-negative, converted from μM, read-out: MIC
[14] = strain E, Gram-negative, converted from μM, read-out: MIC
[15] = strain I, Gram-negative, converted from μM, read-out: MIC
[16] = strain J, Gram-negative, converted from μM, read-out: MIC

SMILES | MIC (E. cloacae ATCC 13047; [2]) | MIC (VRE; converted from μM) | MIC (VRE; range 0.5 to 500 μM) | MIC (M. smegmatis MC2-155; [5]) | MIC (K. pneumoniae ATCC 27736; [7]) | MIC (A. baumannii ATCC 19606; [8]) | MIC (E. coli MC1061; converted from μM) | MIC (E. coli MC1061; range 0.5 to 500 μM) | MIC (P. aeruginosa ATCC 27853; [9]) | MIC ([1]; converted from μM) | MIC ([1]; range 0.5 to 500 μM) | MIC (C. albicans ATCC 90819; converted from μg/mL) | MIC (C. albicans ATCC 90819) | MIC (C. albicans ATCC 2876; converted from μg/mL) | MIC (C. albicans ATCC 2876) | MIC (C. albicans ATCC 1237; converted from μg/mL) | MIC (C. albicans ATCC 1237) | MIC (C. albicans ATCC 1003; [11]) | MIC (C. albicans ATCC 1003) | MIC (C. albicans ATCC 64124; converted from μg/mL) | also measured
Cl.Cl.N=C(N)N/N=C/c1ccc(-c2ccc(/C=N/NC(=N)N)cc2)cc1 [Compound 3A, (2E,2′E)-2,2′-([1,1′-Biphenyl]-4,4′-diylbis(methanylylidene))bis(hydrazine-1-carboximidamide) dihydrochloride] | > 500 µM | 0.8 µg/mL | 2 µM | > 198 µg/mL | > 500 µM | > 500 µM | > 198 µg/mL | > 500 µM | > 500 µM | 0.4 µg/mL | 1 µM | > 79.2 µM | > 31.3 µg/mL | 19.7 µM | 7.8 µg/mL | 39.5 µM | 15.6 µg/mL | 19.7 µM | 7.8 µg/mL | > 79.2 µM | MIC (E. cloacae ATCC 13047): > 198 µg/mL; MIC (MRSA; [3]): 1.5 µg/mL; MIC (MRSA; [4]): 3.9 µM; MIC (B. subtilis 168; converted from μM): > 198 µg/mL; MIC (B. subtilis 168; range 0.5 to 500 μM): > 500 µM; MIC (M. smegmatis MC2-155; [6]): > 500 µM; MIC (K. pneumoniae ATCC 27736): > 198 µg/mL; MIC (A. baumannii ATCC 19606): > 198 µg/mL; MIC (P. aeruginosa ATCC 27853): > 198 µg/mL; MIC (S. enterica ATCC 14028): > 198 µg/mL; MIC (S. enterica ATCC 14028; [10]): > 500 µM; MIC (C. albicans ATCC 64124): > 31.3 µg/mL; MIC (C. albicans ATCC 2310; converted from μg/mL): > 79.2 µM; MIC (C. albicans ATCC 2310): > 31.3 µg/mL; MIC (C. albicans ATCC 10231; converted from μg/mL): 39.5 µM; MIC (C. albicans ATCC 10231): 15.6 µg/mL
C/C(=N\NC(=N)N)c1ccc(Oc2ccc(/C(C)=N/NC(=N)N)cc2)cc1.Cl.Cl [Compound 4E, (2E,2′E)-2,2′-((Oxybis(4,1-phenylene))bis(ethan-1-yl-1-ylidene))bis(hydrazine-1 carboximidamide), dihydrochloride] | 250 µM | 1.7 µg/mL | 3.9 µM | 54.9 to 110 µg/mL | 62.5 µM | 62.5 µM | 54.9 µg/mL | 125 µM | 62.5 µM | 27.5 µg/mL | 62.5 µM | 17.8 µM | 7.8 µg/mL | 8.9 µM | 3.9 µg/mL | 17.8 µM | 7.8 µg/mL | 17.8 µM | 7.8 µg/mL | 17.8 µM | MIC (E. cloacae ATCC 13047; [12]): 110 µg/mL; MIC (M. smegmatis MC2-155; [6]): 125 to 250 µM; MIC (K. pneumoniae ATCC 27736; [13]): 27.5 µg/mL; MIC (A. baumannii ATCC 19606; [14]): 27.5 µg/mL; MIC (P. aeruginosa ATCC 27853; [15]): 27.5 µg/mL; MIC (C. albicans ATCC 64124): 7.8 µg/mL; MIC (C. albicans ATCC 2310; converted from μg/mL): 17.8 µM; MIC (C. albicans ATCC 2310): 7.8 µg/mL; MIC (C. albicans ATCC 10231; converted from μg/mL): 17.8 µM; MIC (C. albicans ATCC 10231): 7.8 µg/mL
C/C(=N\NC(=N)N)c1ccc(/C(C)=N/NC(=N)N)cc1.Cl.Cl [Compound 4G, (2E,2′E)-2,2′-(1,4-Phenylenebis(ethan-1-yl-1-ylidene))bis(hydrazine-1-carboximidamide) dihydrochloride] | > 500 µM | 43.4 µg/mL | 125 µM | > 173 µg/mL | 500 µM | 500 µM | > 173 µg/mL | > 500 µM | 250 µM | 86.8 µg/mL | 250 µM | > 90.1 µM | > 31.3 µg/mL | > 90.1 µM | > 31.3 µg/mL | > 90.1 µM | > 31.3 µg/mL | > 90.1 µM | > 31.3 µg/mL | 90.1 µM | MIC (E. cloacae ATCC 13047): > 173 µg/mL; MIC (MRSA): > 173 µg/mL; MIC (MRSA; [4]): > 500 µM; MIC (B. subtilis 168; converted from μM): 86.8 µg/mL; MIC (B. subtilis 168; range 0.5 to 500 μM): 250 µM; MIC (M. smegmatis MC2-155; [6]): > 500 µM; MIC (K. pneumoniae ATCC 27736; [13]): 173 µg/mL; MIC (A. baumannii ATCC 19606; [14]): 173 µg/mL; MIC (P. aeruginosa ATCC 27853; [15]): 86.8 µg/mL; MIC (S. enterica ATCC 14028; [16]): 86.8 to 173 µg/mL; MIC (S. enterica ATCC 14028; [10]): 250 to 500 µM; MIC (C. albicans ATCC 64124): 31.3 µg/mL; MIC (C. albicans ATCC 2310; converted from μg/mL): > 90.1 µM; MIC (C. albicans ATCC 2310): > 31.3 µg/mL; MIC (C. albicans ATCC 10231; converted from μg/mL): > 90.1 µM; MIC (C. albicans ATCC 10231): > 31.3 µg/mL
C/C(=N\NC(=N)N)c1cccc(/C(C)=N/NC(=N)N)c1.Cl.Cl [Compound 4H, (2E,2′E)-2,2′-(1,3-Phenylenebis(ethan-1-yl-1-ylidene))bis(hydrazine-1-carboximidamide) dihydrochloride] | > 500 µM | 43.4 µg/mL | 125 µM | 5.4 µg/mL | > 500 µM | > 500 µM | > 173 µg/mL | > 500 µM | 500 µM | 86.8 µg/mL | 250 µM | > 90.1 µM | > 31.3 µg/mL | 22.5 µM | 7.8 µg/mL | 90.1 µM | 31.3 µg/mL | > 90.1 µM | > 31.3 µg/mL | > 90.1 µM | MIC (E. cloacae ATCC 13047; [12]): > 173 µg/mL; MIC (MRSA; [3]): > 173 µg/mL; MIC (MRSA; [4]): > 500 µM; MIC (B. subtilis 168; converted from μM): 86.8 µg/mL; MIC (B. subtilis 168; range 0.5 to 500 μM): 250 µM; MIC (M. smegmatis MC2-155; Mycolicibacterium smegmatis, MC2155, strain K, range 0.5 to 500 μM): 15.6 to 31.3 µM; MIC (M. smegmatis MC2-155; strain K, range 0.5 to 500 μM, dihydrochloride): (15.6) μM; MIC (K. pneumoniae ATCC 27736; [13]): > 173 µg/mL; MIC (A. baumannii ATCC 19606; [14]): > 173 µg/mL; MIC (P. aeruginosa ATCC 27853; [15]): 173 µg/mL; MIC (S. enterica ATCC 14028; [16]): 21.7 to 86.8 µg/mL; MIC (S. enterica ATCC 14028; [10]): 62.5 to 250 µM; MIC (C. albicans ATCC 64124): > 31.3 µg/mL; MIC (C. albicans ATCC 2310; converted from μg/mL): 90.1 µM; MIC (C. albicans ATCC 2310): 31.3 µg/mL; MIC (C. albicans ATCC 10231; converted from μg/mL): > 90.1 µM; MIC (C. albicans ATCC 10231): > 31.3 µg/mL
